Test results as given in US9695155B2, “Herbicidal substituted pyrimidinyloxy benzene compounds” (E. I. DU PONT DE NEMOURS AND COMPANY, priority 2013, dated 2017).

Columns and labels:
Test in all cases: Test C preemergence
Italian ryegrass = assay type: in vivo, Lolium multiflorum; details: for Ryegrass, Italian plant response rating: preemergence; for Plant response rating, Ryegrass, Italian: Preemergence, scale 0 to 100, 0 no effect, 100 complete control
In short: (§1)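 Seeds are planted in blended loam soil and sand and treated preemergence, while seedlings in a peat moss/vermiculite medium receive postemergence sprays at 2 to 18 cm height. All plants stay in the greenhouse for 13 to 15 days before visual comparison with controls on a 0–100 scale.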

velvetleaf = assay type: in vivo, Abutilon theophrasti; details: for Velvetleaf plant response rating: preemergence; for Plant response rating, Velvetleaf: Preemergence, scale 0 to 100, 0 no effect, 100 complete control
In short: as §1

pigweed = assay type: in vivo, Amaranthus retroflexus; details: for Pigweed plant response rating: preemergence; for Plant response rating, Pigweed: Preemergence, scale 0 to 100, 0 no effect, 100 complete control
In short: as §1

large (Lg) crabgrass = assay type: in vivo, Digitaria sanguinalis; details: for Crabgrass, Large plant response rating: preemergence; for Plant response rating, Crabgrass, Large: Preemergence, scale 0 to 100, 0 no effect, 100 complete control
In short: as §1

ragweed = assay type: in vivo, Ambrosia elatior; details: for Ragweed plant response rating: preemergence; for Plant response rating, Ragweed: Preemergence, scale 0 to 100, 0 no effect, 100 complete control
In short: as §1

yellow nutsedge = assay type: in vivo, Cyperus esculentus; details: for Nutsedge, Yellow plant response rating: preemergence; for Plant response rating, Nutsedge, Yellow: Preemergence, scale 0 to 100, 0 no effect, 100 complete control
In short: as §1

giant foxtail = assay type: in vivo, Setaria faberii; details: for Foxtail, Giant plant response rating: preemergence; for Plant response rating, Foxtail, Giant: Preemergence, scale 0 to 100, 0 no effect, 100 complete control
In short: as §1

blackgrass = assay type: in vivo, Alopecurus myosuroides; details: for Blackgrass plant response rating: preemergence; for Plant response rating, Blackgrass: Preemergence, scale 0 to 100, 0 no effect, 100 complete control
In short: as §1

corn = assay type: in vivo, Zea mays; details: for Corn plant response rating: preemergence; for Plant response rating, Corn: Preemergence, scale 0 to 100, 0 no effect, 100 complete control
In short: as §1

morningglory = assay type: in vivo, Ipomoea coccinea; details: for Morningglory plant response rating: preemergence; for Plant response rating, Morningglory: Preemergence, scale 0 to 100, 0 no effect, 100 complete control
In short: as §1

oilseed rape = assay type: in vivo, Brassica napus; details: for Oilseed Rape plant response rating: preemergence; for Plant response rating, Oilseed Rape: Preemergence, scale 0 to 100, 0 no effect, 100 complete control
In short: as §1

barnyardgrass = assay type: in vivo, Echinochloa crus-galli; details: for Barnyardgrass plant response rating: preemergence; for Plant response rating, Barnyardgrass: Preemergence, scale 0 to 100, 0 no effect, 100 complete control
In short: as §1

soybean = assay type: in vivo, Glycine max; details: for Soybean plant response rating: preemergence; for Plant response rating, Soybean: Preemergence, scale 0 to 100, 0 no effect, 100 complete control
In short: as §1

lambsquarters = assay type: in vivo, Chenopodium album; details: for Lambsquarters plant response rating: preemergence; for Plant response rating, Lambsquarters: Preemergence, scale 0 to 100, 0 no effect, 100 complete control
In short: as §1

[1] = 16 g ai/ha, scale 0 to 100 (0 no effect, 100 complete control)
[2] = 31 g ai/ha, scale 0 to 100 (0 no effect, 100 complete control)
[3] = 125 g ai/ha, scale 0 (no effect) to 100 (complete control)
[4] = 62 g ai/ha, scale 0 (no effect) to 100 (complete control)
[5] = 250 g ai/ha, scale 0 (no effect) to 100 (complete control)

NC(=S)c1cccc(Oc2ncc(Cl)cn2)c1-n1cc(Cl)cn1 [Compound 292]
85: Ryegrass, Italian plant response rating (Italian ryegrass; [3]) | Plant response rating, Barnyardgrass (barnyardgrass; 62 g ai/ha) | Plant response rating, Soybean (soybean; 62 g ai/ha)
30: Morningglory plant response rating (morningglory; [2])
40: Soybean plant response rating (soybean; [2])
90: Blackgrass plant response rating (blackgrass; [3]) | Plant response rating, Blackgrass (blackgrass; 62 g ai/ha) | Soybean plant response rating (soybean; [3])
0: Ryegrass, Italian plant response rating (Italian ryegrass; [1]) | Ryegrass, Italian plant response rating (Italian ryegrass; [2]) | Nutsedge, Yellow plant response rating (yellow nutsedge; [1]) | Nutsedge, Yellow plant response rating (yellow nutsedge; [2]) | Plant response rating, Nutsedge, Yellow (yellow nutsedge; 62 g ai/ha) | Blackgrass plant response rating (blackgrass; [1]) | Corn plant response rating (corn; [1]) | Barnyardgrass plant response rating (barnyardgrass; [1])
98: Plant response rating, Velvetleaf (velvetleaf; 62 g ai/ha) | Oilseed Rape plant response rating (oilseed rape; [3]) | Plant response rating, Oilseed Rape (oilseed rape; 62 g ai/ha) | Plant response rating, Lambsquarters (lambsquarters; 62 g ai/ha)
70: Ragweed plant response rating (ragweed; [3]) | Blackgrass plant response rating (blackgrass; [2]) | Morningglory plant response rating (morningglory; [3]) | Oilseed Rape plant response rating (oilseed rape; [1])
35: Velvetleaf plant response rating (velvetleaf; [2]) | Ragweed plant response rating (ragweed; [2]) | Plant response rating, Ragweed (ragweed; 62 g ai/ha) | Nutsedge, Yellow plant response rating (yellow nutsedge; [3]) | Plant response rating, Morningglory (morningglory; 62 g ai/ha) | Lambsquarters plant response rating (lambsquarters; [1])
10: Plant response rating, Ryegrass, Italian (Italian ryegrass; 62 g ai/ha) | Plant response rating, Corn (corn; 62 g ai/ha)
15: Velvetleaf plant response rating (velvetleaf; [1]) | Barnyardgrass plant response rating (barnyardgrass; [2])
5: Corn plant response rating (corn; [2]) | Soybean plant response rating (soybean; [1])
80: Oilseed Rape plant response rating (oilseed rape; [2]) | Lambsquarters plant response rating (lambsquarters; [2])
25: Ragweed plant response rating (ragweed; [1]) | Morningglory plant response rating (morningglory; [1])
100: Velvetleaf plant response rating (velvetleaf; [3]) | Pigweed plant response rating (pigweed; [1]) | Pigweed plant response rating (pigweed; [2]) | Pigweed plant response rating (pigweed; [3]) | Plant response rating, Pigweed (pigweed; 62 g ai/ha) | Crabgrass, Large plant response rating (large (Lg) crabgrass; [1]) | Crabgrass, Large plant response rating (large (Lg) crabgrass; [2]) | Crabgrass, Large plant response rating (large (Lg) crabgrass; [3]) | Plant response rating, Crabgrass, Large (large (Lg) crabgrass; 62 g ai/ha) | Foxtail, Giant plant response rating (giant foxtail; [2]) | Foxtail, Giant plant response rating (giant foxtail; [3]) | Plant response rating, Foxtail, Giant (giant foxtail; 62 g ai/ha) | Barnyardgrass plant response rating (barnyardgrass; [3]) | Lambsquarters plant response rating (lambsquarters; [3])
45: Foxtail, Giant plant response rating (giant foxtail; [1]) | Corn plant response rating (corn; [3])

N#Cc1cccc(Oc2ncc(Cl)cn2)c1-n1cc(Cl)cn1 [Compound 72]
80: Ryegrass, Italian plant response rating (Italian ryegrass; [5]) | Nutsedge, Yellow plant response rating (yellow nutsedge; [5]) | Soybean plant response rating (soybean; [3])
10: Ryegrass, Italian plant response rating (Italian ryegrass; [4]) | Nutsedge, Yellow plant response rating (yellow nutsedge; [3])
98: Plant response rating, Lambsquarters (lambsquarters; 31 g ai/ha)
90: Blackgrass plant response rating (blackgrass; [4]) | Blackgrass plant response rating (blackgrass; [3])
95: Velvetleaf plant response rating (velvetleaf; [4]) | Ragweed plant response rating (ragweed; [5]) | Blackgrass plant response rating (blackgrass; [5])
75: Ragweed plant response rating (ragweed; [4]) | Plant response rating, Barnyardgrass (barnyardgrass; 31 g ai/ha)
55: Plant response rating, Ragweed (ragweed; 31 g ai/ha) | Soybean plant response rating (soybean; [4])
5: Plant response rating, Ryegrass, Italian (Italian ryegrass; 31 g ai/ha)
65: Corn plant response rating (corn; [3]) | Corn plant response rating (corn; [5]) | Plant response rating, Oilseed Rape (oilseed rape; 31 g ai/ha)
15: Plant response rating, Morningglory (morningglory; 31 g ai/ha)
100: Velvetleaf plant response rating (velvetleaf; [3]) | Velvetleaf plant response rating (velvetleaf; [5]) | Pigweed plant response rating (pigweed; [4]) | Pigweed plant response rating (pigweed; [3]) | Pigweed plant response rating (pigweed; [5]) | Plant response rating, Pigweed (pigweed; 31 g ai/ha) | Crabgrass, Large plant response rating (large (Lg) crabgrass; [4]) | Crabgrass, Large plant response rating (large (Lg) crabgrass; [3]) | Crabgrass, Large plant response rating (large (Lg) crabgrass; [5]) | Plant response rating, Crabgrass, Large (large (Lg) crabgrass; 31 g ai/ha) | Foxtail, Giant plant response rating (giant foxtail; [4]) | Foxtail, Giant plant response rating (giant foxtail; [3]) | Foxtail, Giant plant response rating (giant foxtail; [5]) | Plant response rating, Foxtail, Giant (giant foxtail; 31 g ai/ha) | Morningglory plant response rating (morningglory; [3]) | Morningglory plant response rating (morningglory; [5]) | Oilseed Rape plant response rating (oilseed rape; [4]) | Oilseed Rape plant response rating (oilseed rape; [3]) | Oilseed Rape plant response rating (oilseed rape; [5]) | Barnyardgrass plant response rating (barnyardgrass; [4]) | Barnyardgrass plant response rating (barnyardgrass; [3]) | Barnyardgrass plant response rating (barnyardgrass; [5]) | Lambsquarters plant response rating (lambsquarters; [4]) | Lambsquarters plant response rating (lambsquarters; [3]) | Lambsquarters plant response rating (lambsquarters; [5])
85: Ragweed plant response rating (ragweed; [3]) | Morningglory plant response rating (morningglory; [4]) | Soybean plant response rating (soybean; [5])
0: Nutsedge, Yellow plant response rating (yellow nutsedge; [4]) | Plant response rating, Nutsedge, Yellow (yellow nutsedge; 31 g ai/ha)
25: Corn plant response rating (corn; [4])
50: Plant response rating, Blackgrass (blackgrass; 31 g ai/ha)
40: Ryegrass, Italian plant response rating (Italian ryegrass; [3]) | Plant response rating, Soybean (soybean; 31 g ai/ha)
60: Plant response rating, Velvetleaf (velvetleaf; 31 g ai/ha)

N#Cc1cnn(-c2c(C#N)cccc2Oc2ncc(Cl)cn2)c1 [Compound 200]
85: Ryegrass, Italian plant response rating (Italian ryegrass; [3])
90: Nutsedge, Yellow plant response rating (yellow nutsedge; [3]) | Plant response rating, Soybean (soybean; 62 g ai/ha)
98: Ragweed plant response rating (ragweed; [5]) | Blackgrass plant response rating (blackgrass; [3]) | Blackgrass plant response rating (blackgrass; [5]) | Morningglory plant response rating (morningglory; [3]) | Morningglory plant response rating (morningglory; [5]) | Oilseed Rape plant response rating (oilseed rape; [3]) | Oilseed Rape plant response rating (oilseed rape; [5]) | Plant response rating, Oilseed Rape (oilseed rape; 62 g ai/ha) | Lambsquarters plant response rating (lambsquarters; [3]) | Lambsquarters plant response rating (lambsquarters; [5]) | Plant response rating, Lambsquarters (lambsquarters; 62 g ai/ha)
100: Velvetleaf plant response rating (velvetleaf; [3]) | Velvetleaf plant response rating (velvetleaf; [5]) | Plant response rating, Velvetleaf (velvetleaf; 62 g ai/ha) | Pigweed plant response rating (pigweed; [3]) | Pigweed plant response rating (pigweed; [5]) | Plant response rating, Pigweed (pigweed; 62 g ai/ha) | Crabgrass, Large plant response rating (large (Lg) crabgrass; [3]) | Crabgrass, Large plant response rating (large (Lg) crabgrass; [5]) | Plant response rating, Crabgrass, Large (large (Lg) crabgrass; 62 g ai/ha) | Ragweed plant response rating (ragweed; [3]) | Plant response rating, Ragweed (ragweed; 62 g ai/ha) | Foxtail, Giant plant response rating (giant foxtail; [3]) | Foxtail, Giant plant response rating (giant foxtail; [5]) | Plant response rating, Foxtail, Giant (giant foxtail; 62 g ai/ha) | Barnyardgrass plant response rating (barnyardgrass; [3]) | Barnyardgrass plant response rating (barnyardgrass; [5]) | Plant response rating, Barnyardgrass (barnyardgrass; 62 g ai/ha) | Soybean plant response rating (soybean; [5])
60: Corn plant response rating (corn; [3])
5: Plant response rating, Corn (corn; 62 g ai/ha)
95: Ryegrass, Italian plant response rating (Italian ryegrass; [5]) | Nutsedge, Yellow plant response rating (yellow nutsedge; [5]) | Plant response rating, Blackgrass (blackgrass; 62 g ai/ha) | Plant response rating, Morningglory (morningglory; 62 g ai/ha) | Soybean plant response rating (soybean; [3])
70: Plant response rating, Ryegrass, Italian (Italian ryegrass; 62 g ai/ha)
75: Corn plant response rating (corn; [5])
40: Plant response rating, Nutsedge, Yellow (yellow nutsedge; 62 g ai/ha)
